Data: patent publication US11576380B2 (priority 2017, dated 2023)
Read-outs that look alike come from different tables or passages of the source.

How the values were obtained:
[1] = test system: Pyricularia oryzae; assay: microbe, parasite or virus in culture; type: cell-based; conditions: for benzovindiflupyr (B) inhibition (%): Table 1; for benzovindiflupyr (B) inhibition (%) / azoxystrobin (B) inhibition (%): 72 hours; for azoxystrobin (B) inhibition (%): Table 2
[2] = test system: Mycosphaerella arachidis; assay: Liquid culture test in well plates, Mycosphaerella arachidis syn. Cercospora arachidicola (peanut brown leaf spot), Example 6; type: cell-based; conditions: Table 4, approximately 5-6 days
Method: The compositions according to the invention are tested for their biological (fungicidal) activity as dimethylsulfoxide (DMSO) solutions using one or more of the following protocols (Examples 2 to 8). A standard description of the liquid culture tests is provided in Example 1.
Mycelia fragments or conidia suspensions of a fungus, prepared either freshly from liquid cultures of the fungus or from cryogenic storage, are directly mixed into nutrient broth. DMSO solutions of the test compound (max. 10 mg/mL) is diluted with 0.025% Tween20 by factor 50 and 10 μL of this solution is pipetted into a microtiter plate (96-well format). The nutrient broth containing the fungal spores/mycelia fragments is then added to give an end concentration of the tested compound. The test plates are incubated in the dark at 24° C. and 96% relative humidity (rh). The inhibition of fungal growth is determined photometrically and visually after 3-7 days, depending on the pathosystem, and percent antifungal activity relative to the untreated check is calculated.
Conidia of the fungus from cryogenic storage were directly mixed into nutrient broth (PDB potato dextrose broth). After placing a DMSO solution of the test compositions into a microtiter plate (96-well format), the nutrient broth containing the fungal spores was added. The test plates were incubated at 24° C. and the inhibition of growth was determined photometrically after approximately 5-6 days.

## Cn1cc(C(=O)Nc2cccc3c2[C@@H]2CC[C@H]3C2=C(Cl)Cl)c(C(F)F)n1 (racemic) [benzovindiflupyr]
[1]; benzovindiflupyr alone 0.0125 ppm
  benzovindiflupyr (B) inhibition (%): 20%
[1]; benzovindiflupyr alone 0.0250 ppm
  benzovindiflupyr (B) inhibition (%): 50%
[1]; benzovindiflupyr alone 0.0500 ppm
  benzovindiflupyr (B) inhibition (%): 70%
[1]; benzovindiflupyr alone 0.1000 ppm
  benzovindiflupyr (B) inhibition (%): 90%

## CO/C=C(/C(=O)OC)c1ccccc1Oc1cc(Oc2ccccc2C#N)ncn1 [azoxystrobin]
[1]; azoxystrobin alone 0.0250 ppm
  azoxystrobin (B) inhibition (%): 0%
[1]; azoxystrobin alone 0.0500 ppm
  azoxystrobin (B) inhibition (%): 0%
[1]; azoxystrobin alone 0.1000 ppm
  azoxystrobin (B) inhibition (%): 0%
[1]; azoxystrobin alone 0.2000 ppm
  azoxystrobin (B) inhibition (%): 0%

## N#Cc1c(Cl)c(Cl)c(Cl)c(C#N)c1Cl [chlorothalonil]
[1]; Pyricularia oryzae, 72 h, read-out: chlorothalonil (B) inhibition (%), Table 3, chlorothalonil alone 0.2500 ppm
  inhibition at 0.25 ppm: 0%
[1]; Pyricularia oryzae, 72 h, read-out: chlorothalonil (B) inhibition (%), Table 3, chlorothalonil alone 0.5000 ppm
  inhibition at 0.5 ppm: 0%
[1]; Pyricularia oryzae, 72 h, read-out: chlorothalonil (B) inhibition (%), Table 3, chlorothalonil alone 1.0000 ppm
  inhibition at 1 ppm: 20%

## COc1ccnc(C(=O)N[C@@H](C)C(=O)O[C@@H](C)C(c2ccc(F)cc2)c2ccc(F)cc2)c1OC(C)=O [florylpicoxamid, (1S)-2,2-bis(4-fluorophenyl)-1-methylethyl N-{[3-(acetyloxy)-4-methoxy-2-pyridyl]carbonyl}-L-alaninate]
[1]; Pyricularia oryzae, 72 h, read-out: florylpicoxamid (A) inhibition (%), Table 1, florylpicoxamid alone 0.0031 ppm
  inhibition at 0.0031 ppm: 0%
[1]; Pyricularia oryzae, 72 h, read-out: florylpicoxamid (A) inhibition (%), Table 1, florylpicoxamid alone 0.0063 ppm
  inhibition at 0.0063 ppm: 0%
[1]; Pyricularia oryzae, 72 h, read-out: florylpicoxamid (A) inhibition (%), Table 1, florylpicoxamid alone 0.0125 ppm
  inhibition at 0.0125 ppm: 0%
[1]; Pyricularia oryzae, 72 h, read-out: florylpicoxamid (A) inhibition (%), Table 1, florylpicoxamid alone 0.0250 ppm
  inhibition at 0.025 ppm: 0%
[1]; Pyricularia oryzae, 72 h, read-out: florylpicoxamid (A) inhibition (%), Table 1, florylpicoxamid alone 0.0500 ppm
  inhibition at 0.05 ppm: 0%
[1]; Pyricularia oryzae, 72 h, read-out: florylpicoxamid (A) inhibition (%), Table 1, florylpicoxamid alone 0.1000 ppm
  inhibition at 0.1 ppm: 20%
[1]; Pyricularia oryzae, 72 h, read-out: florylpicoxamid (A) inhibition (%), Table 2, florylpicoxamid alone 0.1000 ppm
  inhibition at 0.1 ppm: 20%
[1]; Pyricularia oryzae, 72 h, read-out: florylpicoxamid (A) inhibition (%), Table 2, florylpicoxamid alone 0.2000 ppm
  inhibition at 0.2 ppm: 50%
[1]; Pyricularia oryzae, 72 h, read-out: florylpicoxamid (A) inhibition (%), Table 3, florylpicoxamid alone 0.0250 ppm
  inhibition at 0.025 ppm: 0%
[1]; Pyricularia oryzae, 72 h, read-out: florylpicoxamid (A) inhibition (%), Table 3, florylpicoxamid alone 0.0500 ppm
  inhibition at 0.05 ppm: 20%
[1]; Pyricularia oryzae, 72 h, read-out: florylpicoxamid (A) inhibition (%), Table 3, florylpicoxamid alone 0.1000 ppm
  inhibition at 0.1 ppm: 30%
[1]; Pyricularia oryzae, 72 h, read-out: florylpicoxamid (A) inhibition (%), Table 3, florylpicoxamid alone 0.2000 ppm
  inhibition at 0.2 ppm: 60%
[2]; Mycosphaerella arachidis, florylpicoxamid alone 0.0250 ppm
  inhibition at 0.025 ppm: 4%
[2]; Mycosphaerella arachidis, florylpicoxamid alone 0.0500 ppm
  inhibition at 0.05 ppm: 15%
[2]; Mycosphaerella arachidis, florylpicoxamid alone 0.1000 ppm
  inhibition at 0.1 ppm: 38%

## CON(C(=O)c1cn(C)nc1C(F)F)C(C)Cc1c(Cl)cc(Cl)cc1Cl (stereo not drawn) [pydiflumetofen]
[2]; pydiflumetofen alone 0.0025 ppm
  pydiflumetofen (B) inhibition (%): 1%
[2]; pydiflumetofen alone 0.0050 ppm
  pydiflumetofen (B) inhibition (%): 0%
[2]; pydiflumetofen alone 0.0100 ppm
  pydiflumetofen (B) inhibition (%): 28%
[2]; pydiflumetofen alone 0.0200 ppm
  pydiflumetofen (B) inhibition (%): 70%
